Assay results: patent US6531308B2, “Ketoreductase gene and protein from yeast” (Eli Lilly and Company, priority 1997, dated 2003)

Tested on: wild-type ketoreductase from Z. rouxii (SEQ ID NO: 2)
Assay: Reductase activity of Z. rouxii ketoreductase, substrate specificity (NADPH oxidation, absorbance at 340 nm)
Assay type: biochemical
Procedure: Reductase activity was measured using a suitable substrate and a partially purified or substantially purified ketoreductase from Z. rouxii. Activity was measured as a function of the absorbance change at 340 nm, resulting from the oxidation of NADPH. […] Reaction mixtures were first equilibrated at 26° C. for 10 min in the absence of NADPH, and then initiated by addition of NADPH. […] The kinetic parameters for 3,4-methylenedioxyphenyl acetone were determined at an NADPH concentration of 112 μM and a 3,4-methylenedioxyphenyl acetone concentration that varied from 1.7 mM -7.2 mM. The kinetic parameters for NADPH were determined by maintaining the 3,4-methylenedioxyphenyl acetone concentration at 3 mM and the NADPH concentration was varied from 20.5 μM-236.0 μM. An extinction coefficient of 6220 M^−1 cm^−1 for NADPH absorbance at 340 nm was used to calculate the specific activity of the enzyme. For assays using isatin, the change in absorbance with time was measured at 414 nm using an extinction coefficient of 849 M^−1 cm^−1 to calculate activity. One Unit of activity corresponds to 1 μmol of NADPH consumed per minute. For assays carried out at differing pH values, 10 mM Bis-Tris and 10 mM Tris were adjusted to the appropriate pH with HCl. Kinetic parameters were determined by non-linear regression using the JMP® statistics and graphics program.

SMILES: CC(=O)c1ccccc1
- % Relative Activity (substrate concentration 0.6 mM): 4%

SMILES: CC(=O)CCc1ccc2c(c1)OCO2
- % Relative Activity (substrate concentration 5 mM): 18%

SMILES: CC(C)(CO)C(=O)C(=O)O
- % Relative Activity (substrate concentration 4 mM): 37%

SMILES: CC1(C)[C@H]2CC[C@]1(C)C(=O)C2=O
- % Relative Activity (substrate concentration 5 mM): 100%

SMILES: CC(=O)CN1C(=O)c2ccccc2C1=O
- % Relative Activity (substrate concentration 0.6 mM): 17%

SMILES: CC1(C)[C@@H]2CC[C@@]1(C)C(=O)C2=O
- % Relative Activity (substrate concentration 5 mM): 32%

SMILES: CCOC(=O)CC(=O)CCl
- % Relative Activity (substrate concentration 5 mM): 42%

SMILES: O=C1Nc2ccccc2C1=O
- % Relative Activity (substrate concentration 0.8 mM): 86%

SMILES: CC(=O)CCc1ccccc1
- % Relative Activity (substrate concentration 0.6 mM): 0%

SMILES: CC(=O)Cc1ccc2c(c1)OCO2 [3,4-methylenedioxyphenyl acetone]
- % Relative Activity (substrate concentration 3 mM): 100%

SMILES: CC1(C)COC(=O)C1=O
- % Relative Activity (substrate concentration 3 mM): 194%
